# Laboratory results taken from patent US20250281449A1, “NITROGEN-CONTAINING ANALOGS OF SALINOMYCIN FOR USE IN MULTIPLE MYELOMA (MM)” (Centre National de la Recherche Scientifique, priority 2021, published 2025).
# What was measured:
# [1] = tested on: CD34+ cells (normal hematopoietic progenitors); format: cell-based, human
# Experimental: Hematopoietic progenitor colony-forming units assay were performed with CD34+ cells from apheresis of 5 donors. Cells were cultured in hydroxyl-methyl-cellulose medium with or without conventional chemotherapy or Ironomycin (A) or AM-23 (B). CFU-C, CFU-E/BFU-E and CFU-GM, -G, -M were counted after 14 days culture. N=5.
# non-MM cells = experiment: Assay on primary samples of patients, non-MM cells (flow cytometry); format: cell-based, human
# Experimental: Primary MM cells were treated with Ironomycin (A) or AM-23 (B) and incubated during 96H with IL-6. The toxicity on MM cells and non-MM cells was analyzed by flow cytometry and expressed in % of control.
# Bone marrow samples were collected after patients' written informed consent in accordance with the Declaration of Helsinki and institutional research board approval from Montpellier University hospital. Cells are obtained from […] of 5 patients with MM. Cells are obtained by density gradient separation and qualified by Flow cytometry.
# Cells are cultured in Gibco® RPMI-1640 (Glutamax) medium (#6187-010) with 10% FBS at a density of 0.5×10^6 Cell/mL with 2 ng/mL of interleukin-6. Cells are seeded 24H after thawing and treated with various compounds during 72H.
# Total cells were counted with trypan blue and stained with the panel CD38-APC, CD138-PE (Beckman coulter) and analyzed by flow cytometry (Fortessa cytometer, BD Pharmigen). Tumorous MM cells were gated on CD38+ and CD138+.
# H3K36me3 = experiment: Western blot of histone methylation; format: cell-based, human; conditions: 24H
# Experimental: (§1) Cells were treated with iron chelators (80 μM Deferasirox), and Ironomycin (IC50 and 200 nM) during 24H. Protein levels of MMSET (isoforms I and II), MYC, H3K36me3 and H3K27me3 were analyzed by western blot. MMSET (isoforms I and II) and MYC signal were normalized by α-tubulin protein level, H3K36me3 and H3K27me3 signal were normalized by total histone 3 protein level.
# (§2) The total cell lysates were obtained with RIPA 1× lysis buffer (#9806, Cell Signaling®) according with the supplier recommendations.
# (§3) Protein lysates migrate on 10% polyacrylamide gel (NP-0301, Novex, Life Technologies®), in MOPS 1× running buffer (NP0001, Novex, Life Technologies®) or MES 1× running buffer NP-0002, Novex, Life Technologies®) and proteins are transferred to nitrocellulose membrane (1B301001, I-Blot Transfert Starck, NuPAGE, Life Technologies®). The primary antibodies mouse-anti-phospho-Histone H2A.X (Ser139) clone JBW301 ( 1/1000, Merck Millipore), anti-H3K36me3 (#ab9050, abcam®), anti-H3K27me3 (#9733, Cell Signaling®), anti-MMSET (#65127, Cell Signaling® et ab75359, abcam), anti-MYC (#5605, Cell Signaling®) were incubated in TBS-Tween 20 0.1% (Tris-Buffered Saline, pH 7.4) with 5% non-fat milk or Bovine serum albumin (Sigma-Aldrich, A7906). […] Quantification of protein levels was performed with Image J® software (National Institutes of Health, Bethesda, MD, USA).
# [2] = tested on: MMSET (isoforms I and II); experiment: Western blot of MMSET protein level; format: cell-based, human; conditions: MM cell lines with t(4; 14) translocation, 24H
# Experimental: as §1, §2, §3
# RPMI = experiment: Cell viability assay (Cell Titer-Glo), HMCL; format: cell-based; conditions: Homo sapiens, 96H
# Experimental: (§4) The panel of 17 HMCL cell lines were incubated with increasing concentrations of Ironomycin (A), AM23 (B) or vehicle for 96H.
# (§5) HMCL cell lines were cultured for 4 days in 96-well flat-bottom microtiter plates in RPMI 1640 medium or DMEM medium, 10% or 20% FCS (control medium) in the presence of various compounds. The number of viable cells in culture was determined using the Cell Titer-Glo Luminescent Cell Viability Assay from Promega, Madison, WI, USA using a Centro LB 960 luminometer (Berthold Technologies, Bad Wildbad, Germany).
# (§6) This test is based on quantitation of the intracellular ATP present, which signals the presence of metabolically active cells. Data are expressed as the mean percentage of six replicates, normalized to the untreated control.
# OPM-2 = experiment: Cell viability assay (Cell Titer-Glo), HMCL; format: cell-based; conditions: Homo sapiens; OPM-2 HMCL, 96H; read-out: IC50
# Experimental: as §4, §5, §6
# XG2 = experiment: Cell viability assay (Cell Titer-Glo), HMCL; format: cell-based; conditions: Homo sapiens, 96H
# Experimental: as §4, §5, §6
# XG-7 = experiment: Cell viability assay (Cell Titer-Glo), HMCL; format: cell-based; conditions: Homo sapiens; XG-7 HMCL, 96H; read-out: IC50
# Experimental: as §4, §5, §6
# XG-19 = experiment: Cell viability assay (Cell Titer-Glo), HMCL; format: cell-based; conditions: Homo sapiens; XG-19 HMCL, 96H
# Experimental: as §4, §5, §6
# XG6 = experiment: Cell viability assay (Cell Titer-Glo), HMCL; format: cell-based; conditions: Homo sapiens; XG6 HMCL, 96H; read-out: IC50
# Experimental: as §4, §5, §6
# XG11 = experiment: Cell viability assay (Cell Titer-Glo), HMCL; format: cell-based; conditions: Homo sapiens, 96H
# Experimental: as §4, §5, §6
# AMO-1 = experiment: Cell viability assay (Cell Titer-Glo), HMCL; format: cell-based; conditions: Homo sapiens, AMO1; AMO-1 HMCL, 96H
# Experimental: as §4, §5, §6
# JJN3 = experiment: Cell viability assay (Cell Titer-Glo), HMCL; format: cell-based; conditions: Homo sapiens, JJN-3, 96H
# Experimental: as §4, §5, §6
smiles,measurement,setting,value
C#CCN[C@@H]1C=C[C@]2(O[C@H]([C@@H](CC)C(=O)[C@@H](C)[C@@H](O)[C@H](C)[C@@H]3O[C@@H]([C@@H](CC)C(=O)O)CC[C@@H]3C)[C@@H](C)C[C@H]2C)O[C@@]12CC[C@@](C)([C@H]1CC[C@](O)(CC)[C@H](C)O1)O2 [Ironomycin],toxicity on normal hematopoietic progenitors,[1],low toxicity
same,toxicity for non-tumoral cells,non-MM cells,without significant toxicity
same,H3K36 methylation,H3K36me3,significant deregulation of H3K36 methylation
same,expression of MMSET,[2],downregulates the expression of MMSET
same,IC50,RPMI,73 nM
same,IC50,OPM-2,36 nM
same,IC50,XG2,24 nM
same,IC50,XG-7,52 nM
same,IC50,XG-19,27 nM
same,IC50,XG6,26 nM
same,IC50,XG11,51 nM
same,IC50,AMO-1,57 nM
same,IC50,JJN3,84 nM
